Source: paper PMC9643865, “Bromo-protopine, a novel protopine derivative, alleviates tau pathology by activating chaperone-mediated autophagy for Alzheimer’s disease therapy” (Frontiers in Molecular Biosciences, 2022)

Tests used:
[1] = system: HT22 cells; assay: LAMP2A / HSC70 immunocytochemistry and immunoblotting; type: cell-based, mouse; settings: immunocytochemistry, 12.5 and 25 μM, 24 h
Method: SHSY5Y cells stably-expressing mutant tau (SHSYP301L) were cultured in DMEM/F12 + 15% FBS, 3 μg/ml Blasticidin S HCl, and 1X PSN. N2A mouse neuroblastoma and mouse hippocampal neuronal (HT22) cells were cultured in DMEM+10% FBS, and 1X PSN. Sterile complete medium containing PRO-Br was added to the cells, and they were then incubated for 24 h at an optimum temperature of 37°C in a sterile 5% CO2 incubator.
After PRO-Br treatment, cells were solubilised using cold RIPA lysis buffer (9803, Life Technologies), containing protease and phosphatase inhibitor tablets. Cells were sonicated and centrifuged at 14000 rpm for 15 min. Total protein concentration was determined by BCA protein assay, and the samples were separated on SDS-PAGE and transferred to PVDF membranes. The membranes were blocked, washed, and incubated with primary antibodies (Table 1), and incubated at 4°C, overnight. The membranes were further incubated with the required dilutions of secondary antibody for 1 h, at RT. The chemiluminescent signals were captured using x-ray film in a darkroom, with an appropriate chemiluminescent substrate kit (ThermoFisher Scientific, United States). Films were scanned, and the relative intensities of the signals were analyzed using ImageJ software.
HT22 cells were cultured in sterile 24-well culture dishes containing 14 mm cover-glass. Cells were treated with PRO-Br (12.5 and 25 μM), and DMSO (0.1%), for 24 h. Cells were fixed with paraformaldehyde (4%), permeabilized with triton-X-100 (0.1%), and blocked with BSA (2%). LAMP2A antibody (1:500), and HSC70 antibody (1:500) was added to the processed cells and incubated overnight at four°C. Alexa Fluor® 488 (green) and Alexa Fluor® 594 (red) secondary antibodies (1:400) were added and incubated for 1.5 h at room temperature. FluorSave reagent (Merck Millipore, United States) was added, then cover-slipped, and images were captured by a Leica confocal imaging system.

[2] = biological target: T1, HDAC6 (Homo sapiens, UniProt Q9UBN7); assay: HDAC6 deacetylase fluorometric assay with pure HDAC6 protein; type: biochemical; settings: read-out: 50% inhibitory concentration (IC50) on HDAC6 activity
T1 construct: purchased Enzo Life Sciences BML-AK516
T1 sequence (Q9UBN7 1-1215): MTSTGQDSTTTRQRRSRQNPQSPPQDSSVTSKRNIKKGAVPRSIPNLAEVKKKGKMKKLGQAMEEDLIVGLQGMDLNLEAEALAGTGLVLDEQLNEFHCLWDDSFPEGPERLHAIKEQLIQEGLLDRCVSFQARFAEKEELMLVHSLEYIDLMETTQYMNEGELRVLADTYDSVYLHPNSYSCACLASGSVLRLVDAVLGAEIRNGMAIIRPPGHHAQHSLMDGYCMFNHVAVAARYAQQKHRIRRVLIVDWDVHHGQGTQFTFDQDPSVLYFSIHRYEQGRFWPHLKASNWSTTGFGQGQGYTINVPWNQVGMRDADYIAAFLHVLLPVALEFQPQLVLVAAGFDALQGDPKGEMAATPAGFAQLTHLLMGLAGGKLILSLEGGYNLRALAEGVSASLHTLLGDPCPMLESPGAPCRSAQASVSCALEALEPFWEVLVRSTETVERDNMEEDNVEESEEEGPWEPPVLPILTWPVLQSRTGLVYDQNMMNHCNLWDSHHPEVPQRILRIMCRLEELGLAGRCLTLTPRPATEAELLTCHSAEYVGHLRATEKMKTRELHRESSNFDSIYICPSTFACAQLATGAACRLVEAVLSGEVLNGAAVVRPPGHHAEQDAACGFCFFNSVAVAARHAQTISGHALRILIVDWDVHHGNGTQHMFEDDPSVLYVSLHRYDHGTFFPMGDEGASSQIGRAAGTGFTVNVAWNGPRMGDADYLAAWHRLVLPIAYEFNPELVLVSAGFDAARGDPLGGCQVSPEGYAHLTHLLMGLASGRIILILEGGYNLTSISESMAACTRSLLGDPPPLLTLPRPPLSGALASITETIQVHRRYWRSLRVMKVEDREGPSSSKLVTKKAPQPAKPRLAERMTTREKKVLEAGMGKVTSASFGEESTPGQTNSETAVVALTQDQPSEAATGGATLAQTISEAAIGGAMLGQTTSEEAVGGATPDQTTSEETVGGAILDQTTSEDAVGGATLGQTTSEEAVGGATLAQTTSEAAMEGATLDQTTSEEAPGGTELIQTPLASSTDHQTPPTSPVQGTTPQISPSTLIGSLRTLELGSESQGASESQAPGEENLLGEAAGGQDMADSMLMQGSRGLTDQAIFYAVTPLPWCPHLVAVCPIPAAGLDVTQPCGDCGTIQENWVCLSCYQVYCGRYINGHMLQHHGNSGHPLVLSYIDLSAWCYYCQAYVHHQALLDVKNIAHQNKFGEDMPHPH
Method: Inhibition of HDAC6 activity was performed in accordance with the manufacturer’s protocol. Briefly, PRO-Br at various concentrations in HDAC Assay buffer II were prepared. The appropriate substrate solution provided in the kit was added, and the reaction plate was incubated at 37°C. The reaction was stopped by the addition of Developer II, and the fluorometric reading was measured at 440 nm using a fluorometer (Wallac EnVision).
HDAC6 is a cytoplasmic deacetylase that targets key proteins such as α-tubulin and HSP90. […] Therefore, inhibition of HDAC6 activity could be a promising therapeutic strategy for AD. […] To determine the binding of PRO/PRO-Br to HDAC6, we used molecular docking, and the binding affinity was determined from the binding free energies (Kcal/mol). From the docking study, the binding free energy of PRO-Br and PRO with HDAC6 was calculated to be −8.4 kcal/mol and −8.1 kcal/mol (Figures 5C–F), respectively.

## CN1CCc2cc3c(cc2C(=O)Cc2ccc4c(c2C1)OCO4)OCO3 [PRO, Protopine]
[1]
  expression of LAMP2A: did not enhance LAMP2A protein expression
[2]
  IC50: 2360 nM
